Here are results for two compounds from US12714674B2, “JAK inhibitors having a specific particle size distribution” (Elanco US Inc., priority 2020, dated 2026).

Data set [1] is described as follows: Particle size distribution of micronized (jet-milled) material, laser diffraction. It counts as physicochemical. The protocol:
Micronization was begun with a short “setup” run of approximately 300 grams was performed using a feed rate of 9.6 kg/hr. Venturi/mill pressures were 10 psi.
Particle size distribution method of 2-(3-(4-(7H-pyrrolo[2,3-d]pyrimidin-4-yl)-1H-pyrazol-1-yl)-1-(cyclopropylsulfonyl)azetidin-3-yl)acetonitrile.
Method: 150 to 175 mg 2-(3-(4-(7H-pyrrolo[2,3-d]pyrimidin-4-yl)-1H-pyrazol-1-yl)-1-(cyclopropylsulfonyl)azetidin-3-yl)acetonitrile sample are dispersed with 1 ml Tween20/water mixture (10/90 v/v %) to a paste in a beaker. The entire paste is then transferred to the measuring cuvette (beaker is rinsed out with water for complete sample transfer) and dispersed in 300 ml water. To homogenize the suspension in the measuring cuvette, the pump speed is set to 600 rpm. Before measurement the sample is stirred for 30 seconds. The optical concentration should be in the range of approximately 15 to 20% but the value depends strongly on the particle size distribution in the sample. If the 15 to 20% range is not reached either more sample paste must be added or the sample has to be diluted with water.
Equipment: a Helos laser diffractometer from Sympatec is used. Suspensions are measured using a Quixel cell. Dry measurement is done using the Rodos unit. Evaluation is done using the Paqxos software.

The test system of data set [2] is pruritus and skin lesions associated with allergic dermatitis in dogs. The experiment in a line: Four-arm, blinded, randomized, placebo-controlled study: control of pruritus and skin lesions associated with allergic dermatitis in dogs. It counts as in vivo, dog. The protocol: This study evaluated 2-(3-(4-(7H-pyrrolo[2,3-d]pyrimidin-4-yl)-1H-pyrazol-1-yl)-1-(cyclopropylsulfonyl)azetidin-3-yl)acetonitrile for control of pruritus and skin lesions associated with allergic dermatitis in dogs.
Oral tablets were prepared containing Form II 2-(3-(4-(7H-pyrrolo[2,3-d]pyrimidin-4-yl)-1H-pyrazol-1-yl)-1-(cyclopropylsulfonyl)azetidin-3-yl)acetonitrile, as follows. […] The tablet blends were pressed giving tablet cores containing 2.4 mg, 3.6 mg, 5.4 mg, and 16 mg of crystal Form II 2-(3-(4-(7H-pyrrolo[2,3-d]pyrimidin-4-yl)-1H-pyrazol-1-yl)-1-(cyclopropylsulfonyl)azetidin-3-yl)acetonitrile, as well as a placebo core. The tablet cores were coated with a mixture containing water and Opadry 20A150011 Red, thereby giving the final oral tablets for the study.
A four-arm, blinded, randomized, placebo-controlled study was conducted to assess the efficacy of daily administration of 2-(3-(4-(7H-pyrrolo[2,3-d]pyrimidin-4-yl)-1H-pyrazol-1-yl)-1-(cyclopropylsulfonyl)azetidin-3-yl)acetonitrile for control of pruritus and skin lesions associated with allergic dermatitis in dogs. Subjects were randomized to one of the following treatment arms: API-containing Tablets, 0.25-0.40 mg/kg Body Weight; API-containing Tablets, 0.40-0.60 mg/kg Body Weight; API-containing Tablets, 0.60-0.80 mg/kg Body Weight; and Placebo Tablets, 0.0 mg/kg Body Weight.
Dogs enrolled in the study received once daily treatment for approximately 28 days. Baseline data (clinical history, concomitant therapies, body weight, physical examinations and assessments of pruritus and atopic dermatitis) were collected for each dog at enrollment (Day 0). Additional health assessments, physical examinations, body weight measurements, assessments of pruritus and atopic dermatitis, and collection of blood samples for hematology, serum chemistry and pharmacokinetic (PK) analysis occurred consistent with standard testing protocols.
The primary effectiveness variable was treatment success. A treatment success was defined as a 2 unit or more reduction from baseline on the 10-unit owner-assessed pruritus Visual-Analog Scale (VAS) in at least 70% of the first 7 treatment days (i.e., in at least 5 of the first 7 treatment days). Dogs withdrawn from the study within the first 7 days of treatment due to a perceived lack of effectiveness were considered treatment failures.
Random effects were fit for site and site treatment with a variance component covariance structure and a compound symmetry covariance structure was fit for individual dogs.

The mark [3] stands for this setting: Example 50 setup run, feed rate 9.6 kg/hr, venturi/mill pressures 10 psi.
Setting [4] is: PSD method of Example 51, Helos laser diffractometer, suspension in water/Tween20.

Take `N#CCC1(n2cc(-c3ncnc4[nH]ccc34)cn2)CN(S(=O)(=O)C2CC2)C1` [sample “I”, 2-(3-(4-(7H-pyrrolo[2,3-d]pyrimidin-4-yl)-1H-pyrazol-1-yl)-1-(cyclopropylsulfonyl)azetidin-3-yl)acetonitrile]: in data set [1] (setting [3]), the dv10 is 4 µm, the dv50 was determined as 20 µm and the dv90 was found to be 53 µm. In data set [1] (setting [4]), this compound came in with a dv10 of 4 µm, a dv50 of 20 µm and a dv90 of 51 µm.
For the compound `N#CCC1(n2cc(-c3ncnc4[nH]ccc34)cn2)CN(S(=O)(=O)C2CC2)C1` [2-(3-(4-(7H-pyrrolo[2,3-d]pyrimidin-4-yl)-1H-pyrazol-1-yl)-1-(cyclopropylsulfonyl)azetidin-3-yl)acetonitrile], in data set [2] (0.6-0.8 mg/kg once daily), the “primary endpoint for treatment success” value is reported as “achieved the primary endpoint for treatment success”. Also, the “Treatment Success LSMean (response rate)” value in data set [2] (0.60-0.80 mg/kg once daily oral tablets containing Form II, success = 2 unit or more reduction on owner pruritus VAS in at least 5 of first 7 treatment days, generalized linear mixed model) amounted to 0.7188. Moreover, the “improvement in lesion scores” value in data set [2] (0.6-0.8 mg/kg once daily, day 28) is given as “significant improvement in lesion scores at day 28”. Further, the improvement in pruritus result in data set [2] (0.6-0.8 mg/kg once daily, from first dose) is “significant improvements in pruritus from first dose”.
